Blank lines part the entries; values can stand above or below the compound they belong to. The source made the active and inactive calls. The calls are words filed in the database; no cut-off is given here.
Experiments:
[1] = biological target: T1, 5-hydroxytryptamine receptor 2A (Homo sapiens, UniProt P28223); experiment: Displacement of [3H]ketanserin from human 5-HT2A receptor expressed in HEK293 cells at 10 uM incubated for 1 hr relative to control; assay type: cell-based
[2] = biological target: Adenosine receptor A2a (Homo sapiens) (UniProt P29274); experiment: Displacement of […] from human A2AR expressed in HEK cells at 10 uM relative to control; assay type: cell-based
[3] = biological target: Sodium-dependent dopamine transporter (Homo sapiens, UniProt Q01959); experiment: Binding affinity to DAT (unknown origin) assessed as inhibition constant
[4] = biological target: T1, 5-hydroxytryptamine receptor 2A; experiment: Displacement of [3H]ketanserin from human 5-HT2A receptor expressed in HEK293 cells at 10 uM incubated for 1 hr; assay type: cell-based
[5] = biological target: T2, Adenosine receptor A1 (Homo sapiens, UniProt P30542); experiment: Displacement of […] from human A1AR expressed in Flp-In-T-REx-293 cells assessed as inhibition constant; assay type: cell-based
T2 sequence (P30542 whole entry): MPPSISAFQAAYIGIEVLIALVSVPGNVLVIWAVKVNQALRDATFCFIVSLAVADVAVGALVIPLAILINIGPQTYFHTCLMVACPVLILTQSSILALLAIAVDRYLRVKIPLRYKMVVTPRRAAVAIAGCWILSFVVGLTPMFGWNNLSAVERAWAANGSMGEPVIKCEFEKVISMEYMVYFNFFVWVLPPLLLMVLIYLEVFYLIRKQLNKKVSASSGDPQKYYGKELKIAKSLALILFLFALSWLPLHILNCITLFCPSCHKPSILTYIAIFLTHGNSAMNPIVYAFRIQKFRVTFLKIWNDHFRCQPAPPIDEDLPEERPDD

[6] = biological target: T3, Adenosine receptor A3 (Homo sapiens, UniProt P0DMS8); experiment: Displacement of […] from human A3AR expressed in HEK cells assessed as inhibition constant; assay type: cell-based
T3 sequence (P0DMS8 whole entry): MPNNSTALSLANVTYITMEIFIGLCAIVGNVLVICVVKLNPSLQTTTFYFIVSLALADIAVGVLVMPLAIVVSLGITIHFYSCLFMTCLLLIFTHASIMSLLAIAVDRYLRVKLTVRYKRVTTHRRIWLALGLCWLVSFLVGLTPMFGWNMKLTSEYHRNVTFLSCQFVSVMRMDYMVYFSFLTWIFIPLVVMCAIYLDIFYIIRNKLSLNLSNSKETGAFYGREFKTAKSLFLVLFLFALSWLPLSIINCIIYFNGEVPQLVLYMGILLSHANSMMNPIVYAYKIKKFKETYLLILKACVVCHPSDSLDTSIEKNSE

[7] = biological target: 5-hydroxytryptamine receptor 1D (Homo sapiens, UniProt P28221); experiment: Binding affinity to 5HT1D receptor (unknown origin) assessed as inhibition constant
[8] = biological target: T4, Alpha-2C adrenergic receptor (Homo sapiens, UniProt P18825); experiment: Binding affinity to alpha2C receptor (unknown origin) assessed as inhibition constant
T4 sequence (P18825 whole entry): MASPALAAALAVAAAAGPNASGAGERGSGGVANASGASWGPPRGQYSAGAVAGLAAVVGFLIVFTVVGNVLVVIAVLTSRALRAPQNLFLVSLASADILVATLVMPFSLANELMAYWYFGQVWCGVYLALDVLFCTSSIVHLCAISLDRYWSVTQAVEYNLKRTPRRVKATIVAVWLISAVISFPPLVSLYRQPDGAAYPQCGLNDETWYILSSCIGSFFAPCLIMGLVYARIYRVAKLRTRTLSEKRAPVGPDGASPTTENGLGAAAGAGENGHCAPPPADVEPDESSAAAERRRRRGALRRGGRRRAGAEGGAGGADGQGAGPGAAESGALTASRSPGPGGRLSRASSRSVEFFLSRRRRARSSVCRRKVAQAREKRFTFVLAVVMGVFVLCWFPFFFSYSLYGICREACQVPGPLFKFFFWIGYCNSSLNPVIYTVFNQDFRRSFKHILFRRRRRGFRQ

[9] = biological target: Mu-type opioid receptor (Homo sapiens, UniProt P35372); experiment: Binding affinity to MOR (unknown origin) assessed as inhibition constant
[10] = biological target: T1, 5-hydroxytryptamine receptor 2A; experiment: Binding affinity to 5HT2A receptor (unknown origin) at 10 uM relative to control
[11] = biological target: Translocator protein (Homo sapiens, UniProt P30536); experiment: Binding affinity to TSPO (unknown origin) assessed as inhibition constant
[12] = biological target: T5, 5-hydroxytryptamine receptor 2B (Homo sapiens, UniProt P41595); experiment: Displacement of [3H]-LSD from human 5-HT2B receptor expressed in HEK cells at 10 uM incubated for 1 hr relative to control; assay type: cell-based
[13] = biological target: T6, Adenosine receptor A1 (Homo sapiens) (UniProt P30542); experiment: Displacement of […] from human A1AR expressed in Flp-In-T-REx-293 cells at 1 uM relative to control; assay type: cell-based; conditions: filed as agonist
T6 sequence (whole entry): T2 sequence (P30542 whole entry)

[14] = biological target: T7, 5-hydroxytryptamine receptor 2C (Homo sapiens) (UniProt P28335); experiment: Displacement of [3H]-Mesulergine from human 5-HT2C expressed in Flp-In-T-REx-293 cells at 10 uM incubated for 1 hr relative to control; assay type: cell-based; conditions: filed as antagonist
T7 sequence (whole entry): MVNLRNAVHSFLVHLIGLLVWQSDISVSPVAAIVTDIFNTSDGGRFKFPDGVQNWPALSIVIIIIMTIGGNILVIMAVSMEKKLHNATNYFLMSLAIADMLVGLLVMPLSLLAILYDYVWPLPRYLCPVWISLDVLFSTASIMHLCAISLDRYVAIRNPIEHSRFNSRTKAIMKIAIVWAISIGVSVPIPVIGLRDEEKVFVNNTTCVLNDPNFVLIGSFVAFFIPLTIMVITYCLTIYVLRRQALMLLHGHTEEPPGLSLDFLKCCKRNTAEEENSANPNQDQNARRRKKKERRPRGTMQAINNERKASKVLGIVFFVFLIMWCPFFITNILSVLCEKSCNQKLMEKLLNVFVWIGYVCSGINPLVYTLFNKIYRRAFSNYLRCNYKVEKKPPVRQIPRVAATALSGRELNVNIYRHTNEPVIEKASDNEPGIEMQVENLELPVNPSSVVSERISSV

[15] = biological target: T8, D(4) dopamine receptor (Homo sapiens, UniProt P21917); experiment: Binding affinity to dopamine D4 receptor (unknown origin) assessed as inhibition constant
T8 sequence (P21917 whole entry): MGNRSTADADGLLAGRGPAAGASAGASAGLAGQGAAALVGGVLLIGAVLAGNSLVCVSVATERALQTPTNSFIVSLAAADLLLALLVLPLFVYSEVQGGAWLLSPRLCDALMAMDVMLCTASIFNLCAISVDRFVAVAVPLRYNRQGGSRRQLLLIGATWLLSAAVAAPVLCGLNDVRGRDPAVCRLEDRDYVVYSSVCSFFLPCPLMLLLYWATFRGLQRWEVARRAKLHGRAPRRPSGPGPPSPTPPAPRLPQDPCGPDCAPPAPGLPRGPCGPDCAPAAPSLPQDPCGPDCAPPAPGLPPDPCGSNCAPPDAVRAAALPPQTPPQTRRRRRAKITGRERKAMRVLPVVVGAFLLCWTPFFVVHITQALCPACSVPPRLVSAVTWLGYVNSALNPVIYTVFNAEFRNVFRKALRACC

[16] = biological target: Beta-3 adrenergic receptor (Homo sapiens, UniProt P13945); experiment: Binding affinity to beta3 adrenergic receptor (unknown origin) assessed as inhibition constant
[17] = biological target: T5, 5-hydroxytryptamine receptor 2B; experiment: Displacement of [3H]-LSD from human 5-HT2B receptor expressed in HEK cells assessed as inhibition constant incubated for 1 hr; assay type: cell-based
[18] = biological target: T9, 5-hydroxytryptamine receptor 2C (Homo sapiens, UniProt P28335); experiment: Displacement of [3H]-Mesulergine from human 5-HT2C expressed in Flp-In-T-REx-293 cells assessed as inhibition constant incubated for 1 hr; assay type: cell-based; conditions: read-out: Ki
T9 sequence (P28335 whole entry): T7 sequence (whole entry)

[19] = biological target: T10, Adenosine receptor A3 (Homo sapiens) (UniProt P0DMS8); experiment: Displacement of […] from human A3AR expressed in HEK cells at 10 uM relative to control; assay type: cell-based; conditions: filed as agonist
T10 sequence (whole entry): T3 sequence (P0DMS8 whole entry)

[20] = species on record: Homo sapiens; experiment: Selectivity ratio of Kb for antagonist activity at human 5HT2B receptor to Kb for antagonist activity at human 5HT2C receptor
[21] = biological target: T5, 5-hydroxytryptamine receptor 2B; experiment: Agonist activity at human 5HT2B receptor expressed in human Flp-In-293 cells assessed as Gq-mediated calcium flux measured for 60 mins by BRET assay; assay type: functional, cell-based
[22] = biological target: T5, 5-hydroxytryptamine receptor 2B; experiment: Agonist activity at human 5HT2B receptor expressed in human Flp-In-293 cells assessed as beta-arrestin1 recruitment measured for 60 mins by BRET assay; assay type: functional, cell-based
[23] = biological target: T5, 5-hydroxytryptamine receptor 2B; experiment: Agonist activity at human 5HT2B receptor expressed in human Flp-In-293 cells assessed as beta-arrestin2 recruitment measured for 60 mins by BRET assay; assay type: functional, cell-based
[24] = biological target: T5, 5-hydroxytryptamine receptor 2B; conditions: Flp-In-T-REx-293, filed as antagonist, time 1.0 hrs
[25] = biological target: T7, 5-hydroxytryptamine receptor 2C (Homo sapiens); conditions: Flp-In-T-REx-293, filed as antagonist, time 1.0 hrs
[26] = biological target: T1, 5-hydroxytryptamine receptor 2A; conditions: Flp-In-T-REx-293, time 1.0 hrs
[27] = biological target: Histamine H1 receptor (Homo sapiens, UniProt P35367); experiment: Binding affinity to histamine H1 receptor (unknown origin) assessed as inhibition constant
Chain of Histamine H1 receptor (P35367 whole entry): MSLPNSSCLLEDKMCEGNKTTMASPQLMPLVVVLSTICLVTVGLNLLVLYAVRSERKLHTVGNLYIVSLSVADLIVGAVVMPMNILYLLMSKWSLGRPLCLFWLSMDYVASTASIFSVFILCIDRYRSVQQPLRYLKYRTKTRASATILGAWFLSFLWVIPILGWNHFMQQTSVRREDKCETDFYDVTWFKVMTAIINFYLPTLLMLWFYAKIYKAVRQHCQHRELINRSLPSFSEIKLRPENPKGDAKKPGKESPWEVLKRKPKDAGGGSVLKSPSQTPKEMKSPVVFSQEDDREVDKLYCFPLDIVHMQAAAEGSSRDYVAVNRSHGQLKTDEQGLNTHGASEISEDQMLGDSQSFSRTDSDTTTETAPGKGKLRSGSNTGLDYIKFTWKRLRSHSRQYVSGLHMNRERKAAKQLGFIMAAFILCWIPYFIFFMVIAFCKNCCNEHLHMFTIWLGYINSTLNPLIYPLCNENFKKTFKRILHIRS

Chain of Adenosine receptor A2a (Homo sapiens) (P29274 whole entry): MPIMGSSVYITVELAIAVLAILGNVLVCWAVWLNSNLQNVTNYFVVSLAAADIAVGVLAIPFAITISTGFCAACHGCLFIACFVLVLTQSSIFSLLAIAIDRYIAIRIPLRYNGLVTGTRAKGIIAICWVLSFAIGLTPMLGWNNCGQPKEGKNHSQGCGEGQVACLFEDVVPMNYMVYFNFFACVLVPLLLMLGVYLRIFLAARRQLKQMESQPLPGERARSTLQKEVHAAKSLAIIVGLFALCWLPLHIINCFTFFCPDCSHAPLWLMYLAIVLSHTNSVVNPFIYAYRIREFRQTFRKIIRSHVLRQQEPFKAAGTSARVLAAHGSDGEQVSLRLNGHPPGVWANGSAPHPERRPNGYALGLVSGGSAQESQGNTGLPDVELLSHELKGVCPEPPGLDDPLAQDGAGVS
T5 sequence (P41595 whole entry): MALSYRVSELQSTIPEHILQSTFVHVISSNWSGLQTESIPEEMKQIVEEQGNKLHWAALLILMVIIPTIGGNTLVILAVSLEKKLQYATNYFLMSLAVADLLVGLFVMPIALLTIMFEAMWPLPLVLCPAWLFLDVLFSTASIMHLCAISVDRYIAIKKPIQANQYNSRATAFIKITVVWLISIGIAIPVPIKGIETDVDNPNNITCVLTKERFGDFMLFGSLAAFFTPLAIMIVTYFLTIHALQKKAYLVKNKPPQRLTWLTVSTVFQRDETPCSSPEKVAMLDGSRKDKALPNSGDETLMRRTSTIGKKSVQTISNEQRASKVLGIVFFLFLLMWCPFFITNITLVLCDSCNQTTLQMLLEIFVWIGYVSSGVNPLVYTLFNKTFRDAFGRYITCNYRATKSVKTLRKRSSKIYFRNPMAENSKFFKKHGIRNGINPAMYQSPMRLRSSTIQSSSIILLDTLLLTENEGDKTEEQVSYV
T1 sequence (P28223 whole entry): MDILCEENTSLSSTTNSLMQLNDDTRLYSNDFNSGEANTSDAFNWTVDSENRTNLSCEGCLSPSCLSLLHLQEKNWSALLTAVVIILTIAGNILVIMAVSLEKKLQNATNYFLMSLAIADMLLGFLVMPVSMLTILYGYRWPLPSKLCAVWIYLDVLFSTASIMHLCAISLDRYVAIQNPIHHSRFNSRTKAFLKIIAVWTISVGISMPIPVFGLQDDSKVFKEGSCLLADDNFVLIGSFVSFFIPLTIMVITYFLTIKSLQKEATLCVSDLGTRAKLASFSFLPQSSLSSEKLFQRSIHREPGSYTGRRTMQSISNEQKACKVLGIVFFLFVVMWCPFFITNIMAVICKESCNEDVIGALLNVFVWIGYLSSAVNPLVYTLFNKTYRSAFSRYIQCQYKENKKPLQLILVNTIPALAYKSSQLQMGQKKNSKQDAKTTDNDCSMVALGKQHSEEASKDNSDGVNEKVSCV
Chain of 5-hydroxytryptamine receptor 1D (P28221 whole entry): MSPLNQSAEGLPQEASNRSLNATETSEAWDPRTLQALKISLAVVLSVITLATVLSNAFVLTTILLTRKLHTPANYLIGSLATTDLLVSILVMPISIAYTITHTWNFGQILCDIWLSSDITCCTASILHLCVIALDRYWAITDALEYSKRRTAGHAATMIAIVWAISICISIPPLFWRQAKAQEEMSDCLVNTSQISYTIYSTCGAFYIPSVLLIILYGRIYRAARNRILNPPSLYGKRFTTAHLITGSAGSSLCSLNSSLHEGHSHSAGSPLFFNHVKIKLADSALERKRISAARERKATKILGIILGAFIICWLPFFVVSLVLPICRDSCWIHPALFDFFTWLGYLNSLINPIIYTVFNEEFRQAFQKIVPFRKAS
Chain of Sodium-dependent dopamine transporter (Q01959 whole entry): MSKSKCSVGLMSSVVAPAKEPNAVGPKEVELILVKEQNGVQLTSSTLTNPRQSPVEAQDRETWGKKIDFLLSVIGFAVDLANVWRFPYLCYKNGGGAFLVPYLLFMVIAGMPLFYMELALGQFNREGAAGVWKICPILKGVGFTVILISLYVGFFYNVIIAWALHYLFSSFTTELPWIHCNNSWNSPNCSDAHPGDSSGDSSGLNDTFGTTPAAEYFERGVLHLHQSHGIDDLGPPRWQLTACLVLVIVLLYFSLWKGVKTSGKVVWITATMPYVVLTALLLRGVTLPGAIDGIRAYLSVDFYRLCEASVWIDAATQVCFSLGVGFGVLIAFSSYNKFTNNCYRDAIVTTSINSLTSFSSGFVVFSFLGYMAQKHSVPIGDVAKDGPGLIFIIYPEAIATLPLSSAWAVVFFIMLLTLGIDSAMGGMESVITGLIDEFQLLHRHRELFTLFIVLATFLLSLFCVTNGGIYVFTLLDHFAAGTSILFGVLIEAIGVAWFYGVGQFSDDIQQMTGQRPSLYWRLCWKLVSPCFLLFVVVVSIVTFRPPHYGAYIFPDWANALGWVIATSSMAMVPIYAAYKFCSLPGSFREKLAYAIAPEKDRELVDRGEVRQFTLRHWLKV
Chain of Mu-type opioid receptor (P35372 whole entry): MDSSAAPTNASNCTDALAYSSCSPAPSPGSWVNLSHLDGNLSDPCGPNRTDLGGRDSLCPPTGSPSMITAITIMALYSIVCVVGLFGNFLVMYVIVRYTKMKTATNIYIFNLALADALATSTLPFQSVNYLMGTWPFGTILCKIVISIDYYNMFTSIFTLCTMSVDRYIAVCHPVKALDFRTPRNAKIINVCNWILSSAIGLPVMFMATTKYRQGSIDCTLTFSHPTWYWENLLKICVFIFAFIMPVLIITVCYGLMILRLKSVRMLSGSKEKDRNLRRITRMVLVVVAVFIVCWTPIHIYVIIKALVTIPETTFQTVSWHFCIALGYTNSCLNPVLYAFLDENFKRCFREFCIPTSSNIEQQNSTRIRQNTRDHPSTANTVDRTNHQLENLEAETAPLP
Chain of Beta-3 adrenergic receptor (P13945 whole entry): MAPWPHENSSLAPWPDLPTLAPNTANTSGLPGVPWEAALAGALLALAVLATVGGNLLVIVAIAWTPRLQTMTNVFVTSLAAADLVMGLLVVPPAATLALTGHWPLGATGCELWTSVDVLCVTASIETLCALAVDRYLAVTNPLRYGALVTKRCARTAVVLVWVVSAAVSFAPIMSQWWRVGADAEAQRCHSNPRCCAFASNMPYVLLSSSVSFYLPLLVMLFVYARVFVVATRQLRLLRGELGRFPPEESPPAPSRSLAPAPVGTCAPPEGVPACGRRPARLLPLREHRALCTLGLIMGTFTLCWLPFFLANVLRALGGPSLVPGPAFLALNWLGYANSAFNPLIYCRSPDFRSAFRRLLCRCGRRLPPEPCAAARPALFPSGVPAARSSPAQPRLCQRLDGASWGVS
Chain of Translocator protein (P30536 whole entry): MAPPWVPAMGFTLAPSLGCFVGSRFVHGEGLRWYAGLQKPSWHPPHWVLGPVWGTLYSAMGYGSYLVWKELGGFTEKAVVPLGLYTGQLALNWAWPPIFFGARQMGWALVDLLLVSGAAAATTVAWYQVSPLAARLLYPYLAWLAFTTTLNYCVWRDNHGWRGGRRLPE

Activity [1]: 1%
Activity [2]: -12%
Ki [3]: 3900 nM
Structure (SMILES): OC[C@@]12C[C@@H]1[C@@H](n1cnc3c(NC(C4CCCC4)C4CCCC4)nc(Cl)nc31)[C@H](O)[C@@H]2O

Structure (SMILES): O[C@H]1[C@H](n2cnc3c(NC(C4CCCC4)C4CCCC4)nc(Cl)nc32)[C@H]2C[C@@]2(CCl)[C@H]1O
Ki [4]: 6470 nM
Ki [5]: 529 nM
Activity [2]: 36%
Ki [6]: 8260 nM
Ki [7]: 6500 nM
Ki [8]: 2500 nM
Ki [9]: 5700 nM

Activity [10]: 16%
Ki [5]: 204 nM
Activity [2]: 37%
Ki [6]: 34300 nM
Ki [11]: 2100 nM
Structure (SMILES): OC[C@@]12C[C@@H]1[C@@H](n1cnc3c(NC(C4CCC4)C4CCC4)nc(I)nc31)[C@H](O)[C@@H]2O

Activity [12]: 29%
Activity [13]: 49%
Structure (SMILES): Clc1nc(NCC2CC2)c2nc[nH]c2n1

Structure (SMILES): CCSC[C@@]12C[C@@H]1[C@@H](n1cnc3c(NC(C4CCCC4)C4CCCC4)nc(Cl)nc31)[C@H](O)[C@@H]2O
Activity [1]: 38%
Activity [14]: 47%
Activity [2]: -48%
Ki [6]: 6280 nM
Ki [7]: 5200 nM
Ki [15]: 3600 nM
Ki [8]: 2100 nM
Ki [16]: 1500 nM

Structure (SMILES): CCOC(=O)[C@@]12C[C@@H]1[C@@H](n1cnc3c(N[C@H](C4CCC4)C4CC4)nc(I)nc31)[C@H](O)[C@@H]2O
Activity [1]: 13%
Ki [17]: 33 nM
Ki [18]: 331 nM
Ki [5]: 2180 nM
Activity [2]: 15%
Activity [19]: 83%
Ratio [20]: 44.7
Activity [21]: inactive
Activity [22]: inactive
Activity [23]: inactive
pKb [24]: 8.76
pKb [25]: 7.11
pKb [26]: < 5

Structure (SMILES): OC[C@@]12C[C@@H]1[C@@H](n1cnc3c(N[C@@H](C4CCC4)C4CC4)nc(I)nc31)[C@H](O)[C@@H]2O
Activity [1]: 26%
Ki [18]: 552 nM
Ki [5]: 63.9 nM
Activity [19]: 42%
Ki [27]: 2100 nM
pKb [25]: 6.83
pKb [26]: < 5

— ChEMBL document CHEMBL5625223 (Eur J Med Chem, 2023)
